Reference: patent EP1009837B1 (priority 1997, dated 1999)

Key:
S. cerevisiae = conditions: typical low concentration; background statement; cited from earlier work
FY23WT = conditions: strain FY23WT (grande parent); batch culture 30°C; exogenous ethanol 0-10% (w/v); µ corrected for viability
Method: (§1) Strain-specific ethanol tolerances were determined in batch cultures in specially adapted 100ml Erienmeyer flasks (called Klett Flasks) in combination with the Klett Summerson colorimeter and a green filter (Klett Summerson, USA). Cultures were grown to early exponential phase overnight and then split into 18ml aliquots to which 2ml of either sterile distilled water or ethanol solution were added to the aliquots giving final concentrations of 0, 2,3,4,6 and 10% (w/v) ethanol. Each concentration was carried out in triplicate and hourly measurements were made of cell density. A 1ml sample was extracted from the flask, diluted and plated onto YPD for a viable cell count. The remainder of the sample was centrifuged (15,000 rpm, 4°C, 5 min) and the supernatant frozen for subsequent analysis of ethanol concentration by GC.
(§2) All four members of the isogenic series (FY23WT, FY23Δpet191, FY23Δcox5a and FY23ρ^0) were grown in batch culture at 30°C and ethanol, at various concentrations, was introduced at the beginning of the exponential phase. Cell growth was followed for eight hours measuring optical densities with a Klett meter.
(§3) Graphs were plotted of loge Klett units against elapsed time and linear regression analysis was performed to calculate culture specific growth rates, µ. The effect of ethanol on the growth rate of the 4 members of the series was analysed by comparing relative growth rates at each ethanol concentration, and calculating these as a percentage of the growth rate in the absence of ethanol.
(§4) Ethanol inhibition kinetics are thought to follow those of non-competitive inhibition and can be modeled using a variant of the Monod equation. From the specific growth rate values calculated, it is possible to determine values of Ki by inserting them into the rearranged equation [µm/µi - 1 = I. 1/Ki]. […] The initial values of µ calculated are µapparent values determined from the growth of a culture containing both living and dead cells.

FY23Δcox5a = tested on: FY23Δcox5a
Method: as §1, §2, §3, §4

FY23Δpet191 = tested on: FY23Δpet191
Method: as §1, §2, §3, §4

FY23ρ^0 = tested on: FY23ρ^0
Method: as §1, §2, §3, §4

SMILES | concentration to which S. cerevisiae is sensitive (S. cerevisiae) [µg/mL] | Ki (true growth rate) (FY23WT) | ethanol tolerance relative to the wild-type strain (FY23Δcox5a; FY23Δcox5a, Ki as percentage of FY23WT) [%] | Ki (true growth rate) (FY23Δcox5a; strain FY23Δcox5a (nuclear petite), batch culture 30°C, µ corrected for viability) | Ki as percentage of the wild-type value (FY23Δpet191; FY23Δpet191, Ki relative to FY23WT) | Ki (true growth rate) (FY23Δpet191; strain FY23Δpet191 (nuclear petite), batch culture 30°C, µ corrected for viability) | ethanol tolerance relative to FY23 WT (FY23ρ^0; mitochondrial petite, Ki as percentage of FY23WT) [%] | Ki (true growth rate) (FY23ρ^0; strain FY23ρ^0 (mitochondrial petite), batch culture 30°C, µ corrected for viability)
C[C@@H]1C[C@@H]([C@H](O)CC2CC(=O)NC(=O)C2)C(=O)[C@@H](C)C1 [cycloheximide] | ~0.2 | – | – | – | – | – | – | –
CCO [ethanol] | – | 2.30 % (w/v) | 86 | 1.94 % (w/v) | approximately 95% | 2.14 % (w/v) | 76 | 1.71 % (w/v)
